Test results reported in BindingDB's records for patent US8604046 (Sanofi, 2013).

Molecular target: Histamine H3 receptor (Macaca mulatta, UniProt G7N499)
Test: Radioligand Binding Assay
Text: The compounds of this invention have been demonstrated to displace [3H]- methylhistamine radioligand binding to mammalian cell membranes expressing rhesus (Macacca Mulatta) H3 receptor. Additionally, the compounds of this invention have been demonstrated by GTPγS radioligand binding assay to inhibit rhesus H3 constitutive functional activity in cell membranes.

Chain of Histamine H3 receptor (G7N499 whole entry): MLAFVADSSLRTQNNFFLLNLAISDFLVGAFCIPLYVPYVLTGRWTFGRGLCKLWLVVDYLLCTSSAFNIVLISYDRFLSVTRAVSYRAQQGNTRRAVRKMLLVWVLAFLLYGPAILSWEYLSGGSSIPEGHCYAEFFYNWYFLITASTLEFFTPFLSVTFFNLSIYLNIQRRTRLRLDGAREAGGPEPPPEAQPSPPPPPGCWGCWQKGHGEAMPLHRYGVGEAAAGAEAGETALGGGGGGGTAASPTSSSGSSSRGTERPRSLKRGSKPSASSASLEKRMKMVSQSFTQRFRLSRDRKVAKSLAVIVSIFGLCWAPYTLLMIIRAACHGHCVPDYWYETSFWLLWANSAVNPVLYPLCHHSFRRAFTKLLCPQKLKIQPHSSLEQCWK

Structure (SMILES): C[C@H]1CCCN1C1CCN(c2ccc(N3CCC4(CCN(C(=O)OC(C)(C)C)CC4)C3=O)c(F)c2)CC1 [US8604046, 79]
- Ki: 0.3 nM
